Marks after values point to notes of the source that are not given here.

Data set [1] addresses T1, Hepatic Microsomal CYP1A activity (Gadus morhua, UniProt A0ACE1MZ74).
T1 sequence (A0ACE1MZ74 1-519): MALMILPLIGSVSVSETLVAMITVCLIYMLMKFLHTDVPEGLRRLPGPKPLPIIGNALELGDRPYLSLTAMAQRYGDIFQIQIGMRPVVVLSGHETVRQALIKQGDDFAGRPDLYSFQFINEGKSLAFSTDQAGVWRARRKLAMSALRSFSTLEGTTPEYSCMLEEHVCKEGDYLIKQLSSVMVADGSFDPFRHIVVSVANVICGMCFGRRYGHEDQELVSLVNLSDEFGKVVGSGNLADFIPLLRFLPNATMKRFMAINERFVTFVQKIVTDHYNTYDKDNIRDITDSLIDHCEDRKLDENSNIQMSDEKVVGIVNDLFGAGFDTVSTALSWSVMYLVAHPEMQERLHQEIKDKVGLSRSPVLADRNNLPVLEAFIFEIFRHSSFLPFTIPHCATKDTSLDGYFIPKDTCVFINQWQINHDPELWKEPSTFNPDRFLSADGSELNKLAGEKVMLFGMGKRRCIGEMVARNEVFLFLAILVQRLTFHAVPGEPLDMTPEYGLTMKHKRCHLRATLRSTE
In words: In vitro inhibition of CYP1A-mediated EROD activity in pooled liver microsomes. To be noted: cod liver microsomes; Dixon plots. The procedure:
(§1) For in vitro inhibition studies, feral Atlantic cod of both sexes were caught off the West coast of Sweden and placed in concrete basins provided with recirculating aerated seawater at 10 ± 2°C and a salinity of 3.0% and alternative light/dark photoperiods of 12 hours. Prior to sampling, the animals were starved and acclimated to these conditions for three weeks. Eight fish were injected i.p. with β-naphthoflavone (BNF), 50 mg/kg b.w. dissolved in peanut oil (5.0 mg/ml). The fish were placed in a 100 l glass aquarium provided with aerated seawater (above) and 30% of the water volume was replaced each day. To eliminate visual stress, the sides of the aquaria were covered with black plastic sheets. After 3 days exposure, the fish were sacrificed. Livers were quickly dissected out and placed in ice-cold homogenization buffer. Livers were pooled from twenty untreated Atlantic cod and from eight BNF treated Atlantic cod, respectively. Microsomal fractions were isolated (above) and stored in aliquots at -80°C. Ethical approval from the Ethical committee of Göteborg license number (99–2003).
(§2) The CYP1A activity was determined as EROD activity, using resorufin as standard in a SpectraFluor plate reader according to the protocol provided by Nilsen et al.. The CYP3A catalytic activity was measured as BFCOD activity, using HFC as standard. The BFC assay was performed based on a published protocol by Miller et al. and optimized for rainbow trout liver microsomes (T. Hegelund and M. Celander, unpublished data). The reaction mixture consisted of 200 μM BFC, bovine serum albumin (1.6 mg/ml), 2 μM NADPH and 10 μl liver microsomes in a total volume of 200 μl in 0.2 M potassium phosphate buffer pH 7.4 in a 96-multiwell plate using a VICTOR™ 1420 Multilabel Counter from Wallac Sverige AB (Upplands Väsby, Sweden).
(§3) In vitro inhibition studies were carried out in 96-multiwell plates using a VICTOR™ 1420 Multilabel Counter. […] The substances were dissolved in DMSO and diluted with ethanol. The final concentrations never exceeded 0.01% (v/v) DMSO and 0.001% ethanol (v/v). For CYP1A and CYP3A inhibition studies, pooled liver microsomes from BNF-treated and from untreated Atlantic cod, respectively, were used.

The target in another data set is T2, CYP1A (Gadus morhua, UniProt A0ACE1MZ74).
T2 sequence (A0ACE1MZ74 1-519): T1 sequence (A0ACE1MZ74 1-519)
Described as above. The settings on record: both, Atlantic cod (Gadus morhua); for Ki: hepatic microsomal CYP1A (EROD) activity. The procedure: as §1, §2, §3

The test system of another data set is vitellogenin. In words: Plasma vitellogenin analysis (ELISA). It is filed as in vivo, Atlantic cod (Gadus morhua). The settings on record: i.p., 5 days. The procedure: (§4) Ethical approval licence number of ILAB Bergen: 119. Experiment no. 0204.
Plasma levels of vitellogenin protein were determined using a non-competitive sandwich ELISA kit and employing rabbit PAb against Atlantic cod vitellogenin from Biosense Laboratories AS (Bergen, Norway). Each plasma sample was diluted (1:20, 1:15,000 and 1:50,000) and 100 μl was analyzed and compared to purified Atlantic cod vitellogenin protein standards (ranging between 0.12 and 2,000 ng/ml). The signal was detected at A492 after 15 min incubation with substrate solution, using a VICTOR™ 1420 Multilabel Counter.
In general terms: ELISA stands for enzyme-linked immunosorbent assay.

Another data set deals with testosterone. In words: Plasma testosterone analysis (EIA). The data set is classed as in vivo, Atlantic cod (Gadus morhua). To be noted: i.p., 5 days. As for the experimental part:
(§5) Hatchery reared juvenile Atlantic cod of both sexes with an average body weight (b.w.) around 400 g were supplied by Sekkingstad, Preserving AS, Hordaland, Norway. The fish were kept in 0.5 m^3 indoor glass fibre tanks, at Industrial Laboratory (ILAB), Bergen High Technology Centre (Bergen, Norway), provided with continuously flowing seawater at a temperature of 8 ± 0.5°C and a salinity of 3.4%. Throughout the experimental period, the fish were subjected to continuous 24 h artificial light (the regime the farm used for optimal fish growth). The fish were acclimated to these conditions for five days prior to the experimental period. […] Control fish were injected with 5 ml peanut oil/kg b.w. (vehicle). There were eight to nine fish in each treatment group. When designing the experiment, we could only test one combination due to limited fish numbers.
After five days exposure, the fish were sacrificed by a sharp blow to the head. Blood samples were collected from the dorsal vein using a heparinized syringe and the liver was quickly dissected out and placed in ice-cold homogenization buffer (0.1 M sodium phosphate buffer pH 7.4, containing 0.15 M KCl, 1 mM EDTA and 1 mM DTT). […] Total microsomal protein content was measured according to a published method by Bradford, using bovine serum albumin as standard, and a SpectraFluor spectrophotometer from Tecan (Grödig/Salzburg, Austria). […]

Data set [2] concerns CYP3A. Kind of data set: CYP3A 2D gel electrophoresis immunoblot of pooled liver microsomes from treated fish. The settings on record: in vivo. As for the experimental part: as §5
After five days exposure, the fish were sacrificed by a sharp blow to the head. Blood samples were collected from the dorsal vein using a heparinized syringe and the liver was quickly dissected out and placed in ice-cold homogenization buffer (0.1 M sodium phosphate buffer pH 7.4, containing 0.15 M KCl, 1 mM EDTA and 1 mM DTT). Liver microsomes were prepared according to the published protocol by Goksøyr, and stored at -80°C. Total microsomal protein content was measured according to a published method by Bradford, using bovine serum albumin as standard, and a SpectraFluor spectrophotometer from Tecan (Grödig/Salzburg, Austria). Blood plasma was isolated by centrifugation at 5,000 g for 10 min at room temperature and stored at -80°C. Ethical approval licence number of ILAB Bergen: 119. Experiment no. 0204.
On the technique in general: A western blot detects proteins with antibodies after separation by electrophoresis.

For data set [3], the system named is Hepatic Microsomal CYP3A activity. Kind of data set: In vitro inhibition of CYP3A-mediated BFCOD activity in pooled liver microsomes. The settings on record: cod liver microsomes; Dixon plots. The procedure:
as §1, §2, §3
For orientation: Liver microsomes are a subcellular fraction often used to study metabolism.

The subject of data set [4] is CYP3A. In words: in vitro. To be noted: both, Atlantic cod (Gadus morhua); for Ki: pooled liver microsomes from untreated Atlantic cod. As for the experimental part: as §1, §2, §3
Another data set has as its system 17β-estradiol. In words: Plasma 17β-estradiol analysis (EIA). It is filed as in vivo, Atlantic cod (Gadus morhua). The settings on record: i.p., 5 days. The procedure:
as §4
(§6) Plasma levels of 17β-estradiol and testosterone were determined using competitive EIA kits from Cayman Chemical (Ann Arbor, MI, USA). Plasma levels of 11-keto-testosterone were analyzed using a competitive EIA kit, from Biosense Laboratories AS (Bergen, Norway). Plasma from each fish was concentrated (2:1) by extraction once with six volumes diethyl ether and 50 μl was analyzed and compared to purified standard substances. The signals were detected at A405 after 40 min (17β-estradiol), 60 min (testosterone) or 80 min (11-keto-testosterone) incubation with substrate solution, using a VICTOR™ 1420 Multilabel Counter.

In another data set the test system is 11-keto-testosterone. In words: Plasma 11-keto-testosterone analysis (EIA). The settings on record: i.p., 5 days. The data set is classed as in vivo, Atlantic cod (Gadus morhua). The procedure:
as §4, §6

[5] abbreviates: compared to vehicle or single compounds, in words.

Broadly, the IC50 is the concentration needed to halve the response being measured. Higher therefore signals lower potency. What is called Ki is a measure of affinity in units of concentration, obtained from inhibition or displacement. For `C#C[C@]1(O)CC[C@H]2[C@@H]3CCc4cc(O)ccc4[C@H]3CC[C@@]21C` [ethynylestradiol, 17α-ethynylestradiol], the “Type of inhibition of CYP1A (EROD) activity” value in data set [1] is on record as “non-competitive inhibitor”. For the same compound, the IC50 on CYP1A amounted to 20 µM; in the data set on CYP3A [4] (microsomes, pH 7.4) it was 40 µM. The Ki on CYP1A (high [S], high [S] 7-ethoxyresorufin, one representative Dixon plot) was 10.3 µM; on CYP1A (low [S], low [S] 7-ethoxyresorufin, one representative Dixon plot), 5.4 µM; on CYP1A (no [S] level stated, Dixon plot), 5.4 to 10.3 µM; in the data set on CYP3A [4] (pH 7.4, probe BFC) it was 54 to 95 µM; with CYP3A [4] (pH 7.4, probe BFC (high [S])) it was 95 µM; in the data set on CYP3A [4] (pH 7.4, probe BFC (low [S])), 54 µM. The “Effect on plasma vitellogenin” value in the data set with vitellogenin (in words) is “induction”. In addition, the Vitellogenin plasma level with vitellogenin (mean (SD), n = 7–8) is recorded as 4,350 (1,463) ^a μg/ml plasma. In addition, in the data set with testosterone (setting [5]), the “Effect on testosterone plasma levels” value was “no statistically significant effect”. The Testosterone plasma level in the data set on testosterone (mean (SD), n = 7–8) is listed as 90 (40) pg/ml plasma. Besides, the “Induction of the more basic CYP3A-immunoreactive isoform (pI around 5.1)” value with CYP3A [2] was “did not induce”. For the same compound, in [3], the “Type of inhibition of CYP3A (BFCOD) activity” value is recorded as “uncompetitive inhibitor”. Moreover, the “Effect on 17β-estradiol plasma levels” value in the data set on 17β-estradiol (setting [5]) is listed as “no statistically significant effect”. The 17β-Estradiol plasma level with 17β-estradiol (mean (SD), n = 8) is 100 (69) pg/ml plasma. Moreover, in the data set with 11-keto-testosterone (setting [5]), the “Effect on 11-keto-testosterone plasma levels” value is reported as “no statistically significant effect”. Also, in the data set with 11-keto-testosterone (mean (SD), n = 6–8), the 11-Keto-Testosterone plasma level is 35 (23) pg/ml plasma.

Values taken from article PMC549046 (Comparative Hepatology, 2005).
